The record followed here is PubChem BioAssay AID463074 (Broad Institute, 2010).

Structures are written as SMILES.

Broadly, the AC50 is the concentration at which the activity in the assay is half-maximal.

The subject of the assay is HMLE_sh_eGFP viability, CellTiter-Glo luminescence, 72 h. The assay is described as follows: viability loss of HMLE_sh_eGFP cells – cell-based, luminescence, counter-screen for HMLE_sh_ECad selective toxicity project, dose response (AID 463074).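 Further: counterscreen control line to flag general toxicity for the HMLE_sh_ECad screen; potency for loss of viability as luminescence drops below DMSO wells.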 A general note: Counterscreens check selectivity or assay interference.
For the molecule `COc1cccc(NP(=O)(Oc2ccccc2)Oc2ccccc2)c1`, the concentration at half-maximal activity (AC50) was 15.1 µM.

As for `COc1ccc2cc(C(=O)N/N=C/c3sc4ccccc4c3O)ccc2c1`, the AC50 was 1.8 µM.

With `Cc1nn(Cc2ccc(C(=O)Nc3nccs3)cc2)c(C)c1Cl`, the AC50 was 0.661 µM.

For the molecule `CN(C)CCNC=C(C(=O)Nc1ccc(Cl)cc1Cl)C(=O)Nc1ccc(Cl)cc1Cl`, the AC50 was 9.23 µM.

Turning to `CC(=O)Nc1ccc(SCC(=O)c2cc(C)n(-c3ccccc3)c2C)cc1`, the AC50 is 13.3 µM.

Turning to `O=C1/C(=C/c2ccncc2)Oc2cc(OS(=O)(=O)c3ccccc3)ccc21`, the AC50 is 4.81 µM.

For the molecule `CCCCNc1c(-c2ccc(OC)c(SC3CCCCC3)c2)nc2cc(C)ccn12`, the AC50 is 5.29 µM.

Turning to `O=C(NC(=S)Nc1cccc(Cl)c1N1CCCCC1)c1ccco1`, the AC50 was 3.81 µM.

As to `Cc1cc(C(C)(C)C)ccc1OCCCCN1CCCC1`, the concentration at half-maximal activity (AC50) is 4.22 µM.

With `Cc1cccn2c(/C=N/OCc3cccc(F)c3)c(-c3ccc(Cl)cc3)nc12`, the AC50 was 10.5 µM.

As to `Oc1ccc(-c2cc(-c3ccc(O)cc3)nc(-c3ccccc3)n2)cc1`, the AC50 was 3.77 µM.

Consider `CC(=O)Oc1c(Cl)cc(Cl)cc1/C=C/c1ccc2ccccc2n1`, for which the AC50 is 2.86 µM.

For `O=C(/C=C\c1ccccc1)NCC(=O)N/N=C/c1ccc(O)cc1O`, the AC50 was 12 µM.

On to `CCCc1[nH]c2ccc(C#N)cc2c1CCC`, for which the AC50 is 4.14 µM.

As to `CCCCc1ccc(/C(C)=N/Nc2cc(N3CCOCC3)nc(C)n2)cc1`, the AC50 is 4.99 µM.

With `COc1ccc(/C=C/C(=O)c2ccccc2)cc1Cn1nnc2ccccc21`, the AC50 was 6.28 µM.

Regarding `O=C(Nc1cc(C(F)(F)F)cc(C(F)(F)F)c1)Nc1cnn(-c2ccc([N+](=O)[O-])cc2)c1C(F)(F)F`, the AC50 was 0.848 µM.

Regarding `CCOC(=O)CS(=O)(=O)c1nc(-c2ccccc2)cc(C(F)(F)F)n1`, the AC50 is 3.25 µM.

Regarding `CC[C@H](CO)Nc1nc(Nc2cccc(Cl)c2)c2ncn(C(C)C)c2n1`, the AC50 was 6.74 µM.

Regarding `C=CCOc1cccc(/C=C2\C(=O)N(Cc3ccc(C)cc3)C(C)=C2C(=O)OC)c1`, the half-maximal activity concentration (AC50) is 7.24 µM.

For `CCOC(=O)c1ccc(Nc2cc(C)nc(-c3ccccc3)n2)cc1`, the AC50 is 3.71 µM.

For `CC(=O)Nc1ccc(OCC(O)CN2CCN(c3cc(Cl)ccc3C)CC2)cc1` (stereo not drawn), the AC50 was 5.17 µM.

For `O=C(CN1c2ccccc2Sc2ccccc21)NNC(=O)Nc1ccc(Cl)c(Cl)c1`, the AC50 is 3.46 µM.

Take `Cc1sc(-n2c(C)cc(/C=C3\SC(=S)NC3=O)c2C)c(C#N)c1C`: the AC50 is 4.72 µM.

Turning to `Fc1ccc(C(c2ccc(F)cc2)N2CCN(C/C=C/c3ccccc3)CC2)cc1`, the AC50 was 7.18 µM.

Regarding `CC(=O)C12CC(C)=C(C)CC1CC1C3CCC4=CC(=O)CCC4(C)C3CCC12C` (stereo not drawn), the AC50 is 6.65 µM.

For `CCn1c(=O)c(C(=O)NCCc2ccccc2)c(O)c2ccccc21`, the AC50 was 5.62 µM.

For the molecule `CC1(C)C=Cc2c(ccc3c2OC[C@@H](c2ccc(O)cc2O)C3)O1`, the AC50 is 7.27 µM.
